Tested on: yeast genes (expressed mRNA)
Experiment: DNA chip measurement of expressed mRNA of yeast genes after culture with a toxic chemical substance
Format: cell-based, Saccharomyces cerevisiae S288C
Protocol: Yeast (Saccharomyces cerevisiae S288C (a SUC2mal mel gap2 CUP1)) were cultured at 25° C. on YPD medium (yeast extract 1%, polypeptone 2%, glucose 2%). One of toxic chemical substances was added to the cell at logarithmic growth phase, and the cell was further cultured for two hours. Cell was cultured without any chemical substance in the same condition, and was used as a control. Concentrations of the chemical substances were defined to inhibit the growth of the yeast but not lead to death.
After the completion of cultivation, the culture was centrifuged to collect the cells. To the cells, sodium acetate buffer (50 mM sodium acetate, 10 mM EDTA, 1% SDS) was added, and the mixture was shaken at 65° C. for five minutes, followed by returning to room temperature, and obtaining the supernatant, which procedure was repeated two times. To the supernatant, ½ amount of a solution of phenol/chloroform (1:1) was added, and the mixture was centrifuged to give a supernatant, an equal amount of chloroform was added, and the mixture was centrifuged to give a supernatant. To the supernatant, an equal amount of isopropanol containing 0.3 M sodium acetate was added, and the mixture was allowed to stand at room temperature for 30 minutes, after which the mixture was centrifuged to give sediment of the whole RNAs. Seventy % ethanol was added to the sediment, and the mixture was again centrifuged to give sediment, which was then dried and dissolved in water. mRNA was isolated from the whole RNAs as followings. In view of the fact that a poly A chain is attached to the 3′ terminus of mRNA, a polynucleotide having a poly T structure which was immobilized on the surface of latex beads was used to trap the mRNA, and then the mRNA was washed and eluted with spine column (Oligotex-dT30<Super>mRNA Purification Kit, Takara). Reverse transcription of the mRNA was conducted with a reverse transcriptase (Super Script II Reverse Transcriptase; catalogue No. 18064-014, GibcoBRL) using fluorescence-labeled nucleotides to give cDNAs that were introduced with Cy3-dUTP or Cy5-dUTP during the reverse transcription.
The labeled cDNAs were dissolved in TE buffer (10 mM Tris-HCl/1 mM EDTA, pH 8.0), and the solution was dropped on the DNA chip containing the whole genes of yeast (DNA Chip Research Inc. Japan) so that the cDNAs were hybridized on the DNA chip at 65° C. for over 12 hours. The fluoresces intensity of the DNA chip was read with a scanner, and the ratio relative to the fluorescence intensity resulting from the absence of chemical substance was estimated as the following, which is shown in Tables 1 to 9.
In the Tables, “Intensity” indicated in the rightmost column is a value of the level of expressed mRNA of each gene in control cells as divided by the average level of the expressions of the whole genes. A gene of which mRNA level is lower in control, and is higher in cases of addition of chemical substance, is especially useful in the detection of toxic substances.
Here, when a ratio of an amount of mRNA expressed in the presence of the chemical substance to an amount of mRNA expressed in the absence of the chemical substance is two or more, then it is considered significant.

S=C([S-])NCCNC(=S)[S-].[Zn+2] [(11), Zinc N,N′-ethylenebis(dithiocarbamate)]
The level of expressed mRNA in the presence of chemical substance/The level of expressed mRNA in the absence of chemical substance (yeast gene YNL115C, cultured two hours with substance): 1.1
The level of expressed mRNA in the presence of chemical substance/The level of expressed mRNA in the absence of chemical substance (yeast gene YNL134C, cultured two hours with substance): 5.0
The level of expressed mRNA in the presence of chemical substance/The level of expressed mRNA in the absence of chemical substance (yeast gene YNL156C, cultured two hours with substance): 1.4
The level of expressed mRNA in the presence of chemical substance/The level of expressed mRNA in the absence of chemical substance (yeast gene YNL190W, cultured two hours with substance): 1.0
level of expressed mRNA in the presence of chemical substance / level in the absence of chemical substance (yeast gene YNL194C, cultured two hours with the chemical substance): 17.1
The level of expressed mRNA in the presence of chemical substance/The level of expressed mRNA in the absence of chemical substance (yeast gene YNL195C, cultured two hours with the chemical substance): 2.9
The level of expressed mRNA in the presence of chemical substance/The level of expressed mRNA in the absence of chemical substance (yeast gene YNL208W, cultured two hours with substance): 2.5
The level of expressed mRNA in the presence of chemical substance/The level of expressed mRNA in the absence of chemical substance (yeast gene YNL234W, cultured two hours with substance): 1.3
The level of expressed mRNA in the presence of chemical substance/The level of expressed mRNA in the absence of chemical substance (yeast gene YNL241C, cultured for two hours with substance): 3.0
The level of expressed mRNA in the presence of chemical substance/The level of expressed mRNA in the absence of chemical substance (yeast gene YNL281W, cultured two hours with substance): 1.6
The level of expressed mRNA in the presence of chemical substance/The level of expressed mRNA in the absence of chemical substance (yeast gene YNL300W, cultured two hours with substance): 0.9
The level of expressed mRNA in the presence of chemical substance/The level of expressed mRNA in the absence of chemical substance (yeast gene YNL305C, cultured two hours with substance): 1.8
The level of expressed mRNA in the presence of chemical substance/The level of expressed mRNA in the absence of chemical substance (yeast gene YNR064C, cultured two hours with substance): 0.7
The level of expressed mRNA in the presence of chemical substance/The level of expressed mRNA in the absence of chemical substance (yeast gene YNR068C, cultured two hours with substance): 1.1
The level of expressed mRNA in the presence of chemical substance/The level of expressed mRNA in the absence of chemical substance (yeast gene YOL032W, cultured two hours with substance): 1.4
The level of expressed mRNA in the presence of chemical substance/The level of expressed mRNA in the absence of chemical substance (yeast gene YOL036W, cultured two hours with substance): 2.2
The level of expressed mRNA in the presence of chemical substance/The level of expressed mRNA in the absence of chemical substance (yeast gene YOL047C, cultured two hours with substance): 0.9
The level of expressed mRNA in the presence of chemical substance/The level of expressed mRNA in the absence of chemical substance (yeast gene YOL071W, cultured two hours with substance): 4.3
The level of expressed mRNA in the presence of chemical substance/The level of expressed mRNA in the absence of chemical substance (yeast gene YOL082W, cultured two hours with substance): 1.6
The level of expressed mRNA in the presence of chemical substance/The level of expressed mRNA in the absence of chemical substance (yeast gene YOL083W, cultured two hours with substance): 1.3
The level of expressed mRNA in the presence of chemical substance/The level of expressed mRNA in the absence of chemical substance (yeast gene YOL117W, cultured two hours with substance): 1.0
The level of expressed mRNA in the presence of chemical substance/The level of expressed mRNA in the absence of chemical substance (yeast gene YOL131W, cultured two hours with substance): 1.4
The level of expressed mRNA in the presence of chemical substance/The level of expressed mRNA in the absence of chemical substance (yeast gene YOL150C, cultured two hours with substance): 9.4
The level of expressed mRNA in the presence of chemical substance/The level of expressed mRNA in the absence of chemical substance (yeast gene YOL152W): 5.9
The level of expressed mRNA in the presence of chemical substance/The level of expressed mRNA in the absence of chemical substance (yeast gene YOL162W, cultured two hours with substance): 4.3
The level of expressed mRNA in the presence of chemical substance/The level of expressed mRNA in the absence of chemical substance (yeast gene YOR019W, cultured two hours with substance): 1.7
The level of expressed mRNA in the presence of chemical substance/The level of expressed mRNA in the absence of chemical substance (yeast gene YOR178C, cultured two hours with the chemical substance): 4.1
The level of expressed mRNA in the presence of chemical substance/The level of expressed mRNA in the absence of chemical substance (yeast gene YOR197W, cultured two hours with substance): 1.0
The level of expressed mRNA in the presence of chemical substance/The level of expressed mRNA in the absence of chemical substance (yeast gene YOR215C, cultured two hours with substance): 1.6
The level of expressed mRNA in the presence of chemical substance/The level of expressed mRNA in the absence of chemical substance (yeast gene YOR225W, cultured two hours with substance): 1.2
The level of expressed mRNA in the presence of chemical substance/The level of expressed mRNA in the absence of chemical substance (yeast gene YOR248W, cultured two hours with substance): 2.3
The level of expressed mRNA in the presence of chemical substance/The level of expressed mRNA in the absence of chemical substance (yeast gene YOR382W, cultured two hours with substance): 2.5
The level of expressed mRNA in the presence of chemical substance/The level of expressed mRNA in the absence of chemical substance (yeast gene YPL052W, cultured two hours with substance): 1.2
The level of expressed mRNA in the presence of chemical substance/The level of expressed mRNA in the absence of chemical substance (yeast gene YPL087W, cultured two hours with substance): 2.5
The level of expressed mRNA in the presence of chemical substance/The level of expressed mRNA in the absence of chemical substance (yeast gene YPL171C, cultured for two hours with substance): 37.0
The level of expressed mRNA in the presence of chemical substance/The level of expressed mRNA in the absence of chemical substance (yeast gene YPL196W, cultured two hours with substance): 1.7
The level of expressed mRNA in the presence of chemical substance/The level of expressed mRNA in the absence of chemical substance (yeast gene YPL206C, cultured two hours with substance): 1.5
The level of expressed mRNA in the presence of chemical substance/The level of expressed mRNA in the absence of chemical substance (yeast gene YPL222W, cultured two hours with substance): 1.2
The level of expressed mRNA in the presence of chemical substance/The level of expressed mRNA in the absence of chemical substance (yeast gene YPR023C, cultured two hours with substance): 1.7
The level of expressed mRNA in the presence of chemical substance/The level of expressed mRNA in the absence of chemical substance (yeast gene YPR079W, cultured two hours with substance): 0.8
The level of expressed mRNA in the presence of chemical substance/The level of expressed mRNA in the absence of chemical substance (yeast gene YPR151C, cultured two hours with substance): 1.4

Source: patent US20100041089A1, “IMPROVED METHOD FOR DETECTING CHEMICAL […]” (priority 2006, published 2010)
